From US10383868B2, “Quinoline containing compounds and their use for treating endoplasmic reticulum stress-related diseases” (priority 2015, dated 2019) come the findings set out here.

For experiment [1], the target named is SERCA. As to the kind of experiment: Activation of SERCA, NADH-linked, enzyme-coupled ATPase assay with SR vesicles. The format is biochemical. Particulars: concentration required for 50% activation of the maximum Vmax, pH 7.0, 5 mM ATP. Here is the method: Test compounds were characterized over a range of concentrations using an NADH-linked, enzyme-coupled ATPase assay. Each well contained […] of SR vesicles (optimized for skeletal or cardiac SR, respectively), 50 mM MOPS (pH 7.0), 100 mM KCl, 5 mM MgCl2, 1 mM EGTA, 0.2 mM NADH, 1 mM phosphoenol pyruvate, 5 IU pyruvate kinase, 5 IU lactate dehydrogenase, and […] A23187 (a calcium ionophore), and CaCl2 was added to set free [Ca^2+] to the specific values. The assay was started upon addition of ATP at a final concentration of 5 mM, and read in a SpectraMax Plus microplate spectrophotometer and the ATPase activities were fitted using the Hill function. EC50 values were determined as the concentrations of the test compounds that were required for 50% activation of the maximum Vmax.

In experiment [2] the test system is Ob/ob mice. As to the kind of experiment: Effect of a SERCA agonist on the level of blood glucose in ob/ob mice. It is filed as in vivo. Particulars: n=3; for Blood Glucose Day 0: Day 0 (baseline), fasting glucose, 50 mg/kg i.p. group; for Blood Glucose Day 4: Day 4, fasting glucose, 50 mg/kg i.p. once a day. Here is the method:
Ob/ob mice (10 weeks old, n=3) are intraperitoneally (i.p.) injected with 100 μL of a solution containing 0 (vehicle), 10 or 50 mg/kg of a test compound once a day for a total of 5 days. Fasting glucose is measured at baseline and 10 hrs after the administration of the test compound. Glucose levels are measured in blood samples drawn from the tail vein using the OneTouch Ultra 2 Meter (LifeScan, Inc.).

`Cc1ccc2cccc(C(=O)Nc3ccc(OC(C)C)cc3)c2n1` [Compound A1, N-(4-Isopropoxyphenyl)-2-methylquinoline-8-carboxamide] displayed an EC50 in experiment [1] of 600 nM. Moreover, in experiment [2], the “Blood Glucose Day 0” value came out at 319 mg/dL and the “Blood Glucose Day 4” value is 348 mg/dL.

In experiment [1], `Cc1ccc2cccc(C(=O)Nc3cc(Br)cs3)c2n1` [Compound B1] came in with an EC50 of 1200 nM. In experiment [2], the “Blood Glucose Day 0” value is recorded as 318 mg/dL and the “Blood Glucose Day 4” value stood at 333 mg/dL.

The compound `Cc1ccc2cccc(C(=O)Nc3ccc(Br)s3)c2n1` [Compound B2] showed an EC50 in experiment [1] of 1000 nM. Moreover, in experiment [2], the “Blood Glucose Day 0” value is 320 mg/dL and the “Blood Glucose Day 4” value amounted to 215 mg/dL.
